How the values were obtained:
P-glycoprotein (Pgp) = P-glycoprotein (Pgp) efflux assay; format: in vitro ADME; details: mouse; for Papp: PAMPA, read-out: PgP Transport mouse permeability; for efflux ratio: not told, read-out: PgP Transport mouse apical efflux ratio
Protocol: Compounds 1–3 were characterized in a hybrid reporter gene assay for their agoniztic effect on human nuclear receptors PPARα/γ/δ, RXRα, FXRα, RARα in HEK293T cells. Compound 1 was tested in an isothermal titration calorimetry (ITC) assay to measure direct binding affinity to the ligand-binding domain of PPARγ. ADME properties were measured in standardized assays at Roche.
SI11Absorption Distribution Metabolism and Excretion and Toxicity Data
To assess the drug-like characteristics of the newly designed PPAR modulators, a series of tests were conducted covering various aspects of absorption, distribution, metabolism, and excretion (ADME) properties. Specifically, these assessments included the parallel artificial membrane permeability assay (PAMPA) with permeation co- […]
efficients ([…]), LogD measurements, microsomal clearance, hepatocyte clearance, P-glycoprotein (Pgp) efflux ratio and binding and the unbound free fraction. […]
Table S14: Absorption distribution metabolism and excretion (ADME) properties of compounds 1 and 2. The […]
values for […], LogD, protein binding, P-glycoprotein (Pgp) efflux ratio and permeability, and hepato-cyte clearance are presented as the mean and standard deviation, with a sample size of N = 3, i.e., 3 technical replicates each. The values for microsomal clearance and CYP-inhibition represent single point measurements. […]
PgP Transport mouse apical efflux ratio - 1.6 1.2
PgP Transport mouse permeability (nm·sec−1) - 15 60 […]

CANNABINOID RECEPTOR CB1 = CANNABINOID RECEPTOR CB1 (Homo sapiens, UniProt P21554); experiment: Safety off-target panel, binding; details: single point
Description: (§1) Table S9-S12 list all targets, their species, inhibition (%) and assay type for the experiments conducted in the
(§2) off-targets. […] The numbers for mean
(§3) inhibition (%) represent single point measurements.
(§4) off-targets. […] The numbers for
(§5) mean inhibition (%) represent single point measurements.

ADENOSINE A3 RECEPTOR = ADENOSINE A3 RECEPTOR (Homo sapiens, UniProt P0DMS8); experiment: Safety off-target panel, binding; details: single point
Description: as §1, §2, §3, §4, §5

µ OPIOID RECEPTOR = µ OPIOID RECEPTOR (Homo sapiens, UniProt P35372); experiment: Safety off-target panel, binding; details: single point
Description: as §1, §2, §3, §4, §5

β1-ADRENOCEPTOR = β1-ADRENOCEPTOR (Homo sapiens, UniProt P08588); experiment: Safety off-target panel, binding; details: single point
Description: as §1, §2, §3, §4, §5

κ OPIOID RECEPTOR = κ OPIOID RECEPTOR (Homo sapiens, UniProt P41145); experiment: Safety off-target panel, binding; details: single point
Description: as §1, §2, §3, §4, §5

5HT3 = 5HT3 (Homo sapiens, UniProt P46098); experiment: Safety off-target panel, binding; details: single point
Description: as §1, §2, §3, §4, §5

[1] = target: NICOTINIC RECEPTOR, MUSCLE (Homo sapiens, UniProt P02708+P07510+P11230+Q07001); experiment: Safety off-target panel, binding; details: single point
Description: as §1, §2, §3, §4, §5

5HT1A = 5HT1A (Homo sapiens, UniProt P08908); experiment: Safety off-target panel, binding; details: single point
Description: as §1, §2, §3, §4, §5

β2-ADRENOCEPTOR = β2-ADRENOCEPTOR (Homo sapiens, UniProt P07550); experiment: Safety off-target panel, binding; details: single point
Description: as §1, §2, §3, §4, §5

[2] = target: GLYCINE RECEPTOR, STRYCHNINE INSENSITIVE (Rattus norvegicus, UniProt P35439); experiment: Safety off-target panel, binding; details: read-out: Mean inhibition (%)
Description: as §1, §2, §3, §4, §5

alpha1A-ADRENOCEPTOR = alpha1A-ADRENOCEPTOR (Homo sapiens, UniProt P35348); experiment: Safety off-target panel, binding; details: single point
Description: as §1, §2, §3, §4, §5

GLUCOCORTICOID RECEPTOR = GLUCOCORTICOID RECEPTOR (Homo sapiens, UniProt P04150); experiment: Safety off-target panel, binding; details: single point
Description: as §1, §2, §3, §4, §5

ESTROGEN RECEPTOR α = ESTROGEN RECEPTOR α (Homo sapiens, UniProt P03372); experiment: Safety off-target panel, binding; details: single point
Description: as §1, §2, §3, §4, §5

HISTAMINE H1 RECEPTOR = HISTAMINE H1 RECEPTOR (Homo sapiens, UniProt P35367); experiment: Safety off-target panel, binding; details: single point
Description: as §1, §2, §3, §4, §5

[3] = target: CHOLECYSTOKININ 1 RECEPTOR (Homo sapiens, UniProt P32238); experiment: Safety off-target panel, binding; details: single point
Description: as §1, §2, §3, §4, §5

DOPAMINE D1 RECEPTOR = DOPAMINE D1 RECEPTOR (Homo sapiens, UniProt P21728); experiment: Safety off-target panel, binding; details: single point
Description: as §1, §2, §3, §4, §5

ANDROGEN RECEPTOR = ANDROGEN RECEPTOR (Homo sapiens, UniProt P10275); experiment: Safety off-target panel, binding; details: single point
Description: as §1, §2, §3, §4, §5

ADENOSINE A1 RECEPTOR = ADENOSINE A1 RECEPTOR (Homo sapiens, UniProt P30542); experiment: Safety off-target panel, binding; details: single point
Description: as §1, §2, §3, §4, §5

MUSCARINIC RECEPTOR M1 = MUSCARINIC RECEPTOR M1 (Homo sapiens, UniProt P11229); experiment: Safety off-target panel, binding; details: single point
Description: as §1, §2, §3, §4, §5

[4] = target: DOPAMINE D2 RECEPTOR (short) (Homo sapiens, UniProt P14416); experiment: Safety off-target panel, binding; details: single point
Description: as §1, §2, §3, §4, §5

HISTAMINE H3 RECEPTOR = HISTAMINE H3 RECEPTOR (Homo sapiens, UniProt Q9Y5N1); experiment: Safety off-target panel, binding; details: single point
Description: as §1, §2, §3, §4, §5

SEROTONIN TRANSPORTER = SEROTONIN TRANSPORTER (Homo sapiens, UniProt P31645); experiment: Safety off-target panel, binding; details: single point
Description: as §1, §2, §3, §4, §5

PPARγ = PPARγ (Homo sapiens, UniProt P37231); experiment: Safety off-target panel, binding; details: single point
Description: as §1, §2, §3, §4, §5

5HT2A = 5HT2A (Homo sapiens, UniProt P28223); experiment: Safety off-target panel, binding; details: single point
Description: as §1, §2, §3, §4, §5

5HT2B = 5HT2B (Homo sapiens, UniProt P41595); experiment: Safety off-target panel, binding; details: single point
Description: as §1, §2, §3, §4, §5

MUSCARINIC RECEPTOR M2 = MUSCARINIC RECEPTOR M2 (Homo sapiens, UniProt P08172); experiment: Safety off-target panel, binding; details: single point
Description: as §1, §2, §3, §4, §5

PROSTAGLANDIN F RECEPTOR = PROSTAGLANDIN F RECEPTOR (Homo sapiens, UniProt P43088); experiment: Safety off-target panel, binding; details: single point
Description: as §1, §2, §3, §4, §5

[5] = target: ANGIOTENSIN II RECEPTOR 1 (Homo sapiens, UniProt P30556); experiment: Safety off-target panel, binding; details: single point
Description: as §1, §2, §3, §4, §5

α2A-ADRENOCEPTOR = α2A-ADRENOCEPTOR (Homo sapiens, UniProt P08913); experiment: Safety off-target panel, binding; details: single point
Description: as §1, §2, §3, §4, §5

Chain of UniProt P07550 (P07550 whole entry): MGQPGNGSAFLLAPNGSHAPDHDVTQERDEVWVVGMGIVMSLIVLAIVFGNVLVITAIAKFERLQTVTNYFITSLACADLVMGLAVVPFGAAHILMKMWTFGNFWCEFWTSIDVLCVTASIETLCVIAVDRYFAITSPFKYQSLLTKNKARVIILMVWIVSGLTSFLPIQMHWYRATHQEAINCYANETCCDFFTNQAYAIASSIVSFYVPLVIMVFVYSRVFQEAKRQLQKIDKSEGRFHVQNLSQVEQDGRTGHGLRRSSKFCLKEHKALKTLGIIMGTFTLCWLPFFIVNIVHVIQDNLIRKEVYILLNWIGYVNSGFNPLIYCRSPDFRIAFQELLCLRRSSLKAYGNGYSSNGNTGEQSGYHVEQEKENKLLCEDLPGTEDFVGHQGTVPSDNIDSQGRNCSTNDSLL
Chain of GLYCINE RECEPTOR, STRYCHNINE INSENSITIVE (P35439 394-800): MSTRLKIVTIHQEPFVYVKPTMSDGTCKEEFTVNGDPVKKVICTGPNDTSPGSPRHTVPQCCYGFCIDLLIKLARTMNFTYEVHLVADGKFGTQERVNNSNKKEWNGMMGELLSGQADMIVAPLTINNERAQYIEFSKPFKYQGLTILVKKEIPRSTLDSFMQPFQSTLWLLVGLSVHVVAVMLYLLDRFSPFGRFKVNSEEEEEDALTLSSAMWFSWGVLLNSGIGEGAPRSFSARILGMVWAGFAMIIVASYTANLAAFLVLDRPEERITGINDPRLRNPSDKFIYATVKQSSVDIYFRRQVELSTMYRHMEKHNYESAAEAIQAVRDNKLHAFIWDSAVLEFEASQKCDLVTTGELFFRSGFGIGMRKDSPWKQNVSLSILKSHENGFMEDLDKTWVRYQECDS
Chain of 5HT2A (P28223 whole entry): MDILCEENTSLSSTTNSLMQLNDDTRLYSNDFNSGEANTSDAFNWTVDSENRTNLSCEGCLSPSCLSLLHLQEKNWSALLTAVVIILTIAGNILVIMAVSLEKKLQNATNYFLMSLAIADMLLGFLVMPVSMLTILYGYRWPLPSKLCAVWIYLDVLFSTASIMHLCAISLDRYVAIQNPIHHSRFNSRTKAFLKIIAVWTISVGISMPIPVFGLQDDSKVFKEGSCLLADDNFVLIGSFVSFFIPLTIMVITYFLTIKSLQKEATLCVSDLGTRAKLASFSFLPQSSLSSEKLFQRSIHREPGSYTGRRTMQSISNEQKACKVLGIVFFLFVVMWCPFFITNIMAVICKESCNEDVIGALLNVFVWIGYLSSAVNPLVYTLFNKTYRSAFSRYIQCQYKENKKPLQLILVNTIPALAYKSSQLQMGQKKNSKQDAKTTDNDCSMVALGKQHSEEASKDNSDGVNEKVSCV
Chain of ANGIOTENSIN II RECEPTOR 1 (P30556 whole entry): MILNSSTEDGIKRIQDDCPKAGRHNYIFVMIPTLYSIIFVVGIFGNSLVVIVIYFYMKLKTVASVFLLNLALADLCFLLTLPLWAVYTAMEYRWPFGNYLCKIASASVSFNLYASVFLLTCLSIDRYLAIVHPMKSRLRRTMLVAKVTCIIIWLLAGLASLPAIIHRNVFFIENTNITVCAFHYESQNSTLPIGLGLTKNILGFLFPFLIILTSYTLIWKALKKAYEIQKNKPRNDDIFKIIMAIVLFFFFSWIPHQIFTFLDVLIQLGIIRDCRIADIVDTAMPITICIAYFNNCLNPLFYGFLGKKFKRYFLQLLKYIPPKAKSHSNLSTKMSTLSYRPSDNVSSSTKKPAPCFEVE
Chain of 5HT3 (P46098 24-478): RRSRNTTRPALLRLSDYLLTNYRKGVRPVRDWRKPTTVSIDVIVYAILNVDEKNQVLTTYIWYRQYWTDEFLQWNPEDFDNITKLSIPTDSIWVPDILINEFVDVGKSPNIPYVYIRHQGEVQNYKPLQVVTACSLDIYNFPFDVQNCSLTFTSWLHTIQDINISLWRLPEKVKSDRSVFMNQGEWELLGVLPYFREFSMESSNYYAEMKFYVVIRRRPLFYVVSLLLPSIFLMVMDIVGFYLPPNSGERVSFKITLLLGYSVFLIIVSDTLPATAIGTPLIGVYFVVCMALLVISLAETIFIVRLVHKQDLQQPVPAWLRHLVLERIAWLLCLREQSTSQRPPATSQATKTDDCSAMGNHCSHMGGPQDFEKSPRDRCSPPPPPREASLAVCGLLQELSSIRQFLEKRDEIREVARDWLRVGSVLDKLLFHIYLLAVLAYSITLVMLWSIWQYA
Chain of UniProt P04150 (P04150 whole entry): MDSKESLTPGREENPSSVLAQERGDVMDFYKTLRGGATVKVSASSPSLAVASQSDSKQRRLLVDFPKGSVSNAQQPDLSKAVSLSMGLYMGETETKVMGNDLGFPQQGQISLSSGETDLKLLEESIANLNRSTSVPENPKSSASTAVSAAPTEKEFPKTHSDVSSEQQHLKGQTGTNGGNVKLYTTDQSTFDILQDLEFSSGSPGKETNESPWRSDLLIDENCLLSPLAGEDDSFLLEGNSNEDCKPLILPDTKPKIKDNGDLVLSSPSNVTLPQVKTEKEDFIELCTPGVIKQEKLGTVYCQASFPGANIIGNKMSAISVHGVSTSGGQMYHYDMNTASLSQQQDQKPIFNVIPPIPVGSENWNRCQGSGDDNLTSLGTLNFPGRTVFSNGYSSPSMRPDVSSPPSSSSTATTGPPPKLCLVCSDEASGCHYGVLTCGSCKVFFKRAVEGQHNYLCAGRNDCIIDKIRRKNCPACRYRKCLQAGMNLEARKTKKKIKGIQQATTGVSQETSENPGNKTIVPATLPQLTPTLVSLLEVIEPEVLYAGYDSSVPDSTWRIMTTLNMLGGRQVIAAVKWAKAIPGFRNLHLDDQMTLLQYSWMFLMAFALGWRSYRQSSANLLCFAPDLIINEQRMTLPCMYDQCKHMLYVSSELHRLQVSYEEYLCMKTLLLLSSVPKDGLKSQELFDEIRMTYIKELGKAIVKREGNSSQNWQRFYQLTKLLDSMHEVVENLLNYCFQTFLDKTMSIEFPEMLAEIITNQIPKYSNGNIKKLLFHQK
Chain of UniProt P43088 (P43088 whole entry): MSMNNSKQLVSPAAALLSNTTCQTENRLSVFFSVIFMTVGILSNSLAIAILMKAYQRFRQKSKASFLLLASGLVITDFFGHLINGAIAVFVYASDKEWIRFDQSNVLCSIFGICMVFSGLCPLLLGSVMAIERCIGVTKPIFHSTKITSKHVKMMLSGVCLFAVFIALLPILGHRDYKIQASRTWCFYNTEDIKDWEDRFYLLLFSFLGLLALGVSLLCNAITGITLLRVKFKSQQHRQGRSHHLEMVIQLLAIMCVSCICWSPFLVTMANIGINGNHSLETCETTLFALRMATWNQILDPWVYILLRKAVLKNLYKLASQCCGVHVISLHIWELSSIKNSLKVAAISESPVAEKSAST
Chain of CANNABINOID RECEPTOR CB1 (P21554 whole entry): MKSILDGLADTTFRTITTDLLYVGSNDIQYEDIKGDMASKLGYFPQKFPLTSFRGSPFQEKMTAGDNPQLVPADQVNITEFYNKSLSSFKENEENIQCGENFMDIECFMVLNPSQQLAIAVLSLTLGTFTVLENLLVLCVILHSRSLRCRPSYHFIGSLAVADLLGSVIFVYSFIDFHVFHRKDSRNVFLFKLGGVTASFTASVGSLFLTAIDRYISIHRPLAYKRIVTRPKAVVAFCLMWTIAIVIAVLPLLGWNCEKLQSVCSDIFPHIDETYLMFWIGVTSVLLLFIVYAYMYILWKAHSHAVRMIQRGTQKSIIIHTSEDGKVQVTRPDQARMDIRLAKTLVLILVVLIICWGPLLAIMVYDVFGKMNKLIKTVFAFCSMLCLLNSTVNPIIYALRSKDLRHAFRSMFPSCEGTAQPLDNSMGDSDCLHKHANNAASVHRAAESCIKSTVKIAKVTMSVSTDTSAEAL
Chain of ADENOSINE A1 RECEPTOR (P30542 whole entry): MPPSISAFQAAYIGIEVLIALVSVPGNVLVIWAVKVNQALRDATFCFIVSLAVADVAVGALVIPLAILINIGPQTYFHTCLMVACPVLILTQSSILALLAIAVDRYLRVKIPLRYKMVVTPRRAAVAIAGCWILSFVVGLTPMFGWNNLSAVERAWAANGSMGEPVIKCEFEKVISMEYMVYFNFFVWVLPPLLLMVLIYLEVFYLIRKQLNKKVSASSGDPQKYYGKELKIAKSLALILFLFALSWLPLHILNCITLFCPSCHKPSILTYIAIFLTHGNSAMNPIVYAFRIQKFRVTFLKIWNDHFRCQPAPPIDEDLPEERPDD
Chain of ADENOSINE A3 RECEPTOR (P0DMS8 whole entry): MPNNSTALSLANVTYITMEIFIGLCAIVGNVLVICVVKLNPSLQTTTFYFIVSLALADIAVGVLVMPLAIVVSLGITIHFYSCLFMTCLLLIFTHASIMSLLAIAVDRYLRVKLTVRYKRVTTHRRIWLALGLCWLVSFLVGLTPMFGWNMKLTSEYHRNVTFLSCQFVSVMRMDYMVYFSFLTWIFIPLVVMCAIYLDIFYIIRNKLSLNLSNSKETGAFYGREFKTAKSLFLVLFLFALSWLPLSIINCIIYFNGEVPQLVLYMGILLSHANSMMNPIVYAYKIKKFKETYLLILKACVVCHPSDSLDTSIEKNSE
Chain of µ OPIOID RECEPTOR (P35372 whole entry): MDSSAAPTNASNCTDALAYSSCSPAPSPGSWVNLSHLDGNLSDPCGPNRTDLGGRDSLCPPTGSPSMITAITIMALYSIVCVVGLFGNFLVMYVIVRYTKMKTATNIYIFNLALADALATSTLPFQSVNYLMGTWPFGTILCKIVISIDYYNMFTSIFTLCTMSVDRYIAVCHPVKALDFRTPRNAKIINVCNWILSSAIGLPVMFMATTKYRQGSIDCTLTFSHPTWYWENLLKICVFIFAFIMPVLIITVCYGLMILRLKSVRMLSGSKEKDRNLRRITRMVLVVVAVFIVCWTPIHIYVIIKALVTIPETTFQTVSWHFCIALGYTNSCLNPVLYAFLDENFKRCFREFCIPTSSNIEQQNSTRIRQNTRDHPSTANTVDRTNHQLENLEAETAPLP

Row | Compound | Papp (P-glycoprotein (Pgp)) [×10⁻⁶ cm/s] | efflux ratio (P-glycoprotein (Pgp)) | inhibition at 10 µM (CANNABINOID RECEPTOR CB1) [%] | inhibition at 10 µM (ADENOSINE A3 RECEPTOR) [%] | inhibition at 10 µM (µ OPIOID RECEPTOR) [%] | inhibition at 10 µM (β1-ADRENOCEPTOR) [%] | inhibition at 10 µM (κ OPIOID RECEPTOR) [%] | inhibition at 10 µM (5HT3) [%] | inhibition at 10 µM [1] [%] | inhibition at 10 µM (5HT1A) [%] | inhibition at 10 µM (β2-ADRENOCEPTOR) [%] | inhibition at 10 µM [2] [%] | inhibition at 10 µM (alpha1A-ADRENOCEPTOR) [%] | inhibition at 10 µM (GLUCOCORTICOID RECEPTOR) [%] | inhibition at 10 µM (ESTROGEN RECEPTOR α) [%] | inhibition at 10 µM (HISTAMINE H1 RECEPTOR) [%] | inhibition at 10 µM [3] [%] | inhibition at 10 µM (DOPAMINE D1 RECEPTOR) [%] | inhibition at 10 µM (ANDROGEN RECEPTOR) [%] | inhibition at 10 µM (ADENOSINE A1 RECEPTOR) [%] | other results
1 | Cc1nnc(-c2ccc(OCCCOc3ccc(CCC(=O)O)c(F)c3)c(F)c2)s1 [Compound 1] | 1.5 | 1.6 | 9.3 | 9 | -6.9 | 0.7 | 10.9 | -4.7 | -3.7 | -20.6 | 4 | 2.3 | 1.7 | -3.8 | 13.6 | -7 | 1.2 | -3.3 | -1.6 | 9.4 | inhibition at 10 µM (MUSCARINIC RECEPTOR M1): 8.4%; inhibition at 10 µM [4]: -1.9%; inhibition at 10 µM (HISTAMINE H3 RECEPTOR): 4.9%; inhibition at 10 µM (SEROTONIN TRANSPORTER): 6.9%; inhibition at 10 µM (PPARγ): 95%; inhibition at 10 µM (5HT2A): -3.3%; inhibition at 10 µM (5HT2B): 6.6%; inhibition at 10 µM (MUSCARINIC RECEPTOR M2): 4.2%; inhibition at 10 µM (PROSTAGLANDIN F RECEPTOR): 0%; inhibition at 10 µM [5]: -7.5%; inhibition at 10 µM (α2A-ADRENOCEPTOR): -3.2%
2 | COc1ccc(Oc2ccc3ncn(CCOc4ccc(CCC(=O)O)cc4)c3c2)cc1 [Compound 2] | 6 | 1.2 | -3.2 | 17.1 | 6.2 | 6.9 | -0.7 | 0.3 | 0.9 | 22.7 | 7 | -8.3 | 2.9 | -2.1 | -1.8 | -6.7 | 7.6 | -5.7 | 3.1 | -3.6 | inhibition at 10 µM (MUSCARINIC RECEPTOR M1): -0.2%; inhibition at 10 µM [4]: -6.8%; inhibition at 10 µM (HISTAMINE H3 RECEPTOR): 2.1%; inhibition at 10 µM (SEROTONIN TRANSPORTER): 6.4%; inhibition at 10 µM (PPARγ): 89.6%; inhibition at 10 µM (5HT2A): -8.8%; inhibition at 10 µM (5HT2B): 7.1%; inhibition at 10 µM (MUSCARINIC RECEPTOR M2): 6.9%; inhibition at 10 µM (PROSTAGLANDIN F RECEPTOR): 4.6%; inhibition at 10 µM [5]: -6.2%; inhibition at 10 µM (α2A-ADRENOCEPTOR): 4.9%

Source: publication PMC11035696, “Prospective de novo drug design with deep interactome learning” (Nature Communications, 2024)
